± gives the expanded uncertainty stated by the source.
Test: xn = mol fraction of the nth substance listed
Conditions: Liquid

ClCBr [bromochloromethane] + CCOC(C)=O
mass density (288.15 K, 101.33 kPa, x1 = 0.0961): 976.08 ± 0.36 kg/m3
mass density (288.15 K, 101.33 kPa, x1 = 0.2333): 1083.23 ± 0.51 kg/m3
mass density (288.15 K, 101.33 kPa, x1 = 0.3083): 1145.77 ± 0.65 kg/m3
mass density (288.15 K, 101.33 kPa, x1 = 0.4015): 1228.4 ± 0.84 kg/m3
mass density (288.15 K, 101.33 kPa, x1 = 0.5004): 1322.97 ± 1.1 kg/m3
mass density (288.15 K, 101.33 kPa, x1 = 0.604): 1430.45 ± 1.3 kg/m3
mass density (288.15 K, 101.33 kPa, x1 = 0.7004): 1538.94 ± 1.6 kg/m3
mass density (288.15 K, 101.33 kPa, x1 = 0.7987): 1659.96 ± 1.9 kg/m3
mass density (288.15 K, 101.33 kPa, x1 = 0.9032): 1800.66 ± 2.2 kg/m3
mass density (288.15 K, 101.33 kPa, x1 = 1): 1945.94 ± 2.6 kg/m3
mass density (298.15 K, 101.33 kPa, x1 = 0.0961): 963.62 ± 0.38 kg/m3
mass density (298.15 K, 101.33 kPa, x1 = 0.2333): 1069.74 ± 0.48 kg/m3
mass density (298.15 K, 101.33 kPa, x1 = 0.3083): 1131.77 ± 0.62 kg/m3
mass density (298.15 K, 101.33 kPa, x1 = 0.4015): 1213.84 ± 0.81 kg/m3
mass density (298.15 K, 101.33 kPa, x1 = 0.5004): 1308.02 ± 1 kg/m3
mass density (298.15 K, 101.33 kPa, x1 = 0.604): 1414.77 ± 1.3 kg/m3
mass density (298.15 K, 101.33 kPa, x1 = 0.7004): 1522.14 ± 1.6 kg/m3
mass density (298.15 K, 101.33 kPa, x1 = 0.7987): 1641.51 ± 1.9 kg/m3
mass density (298.15 K, 101.33 kPa, x1 = 0.9032): 1780.71 ± 2.2 kg/m3
mass density (298.15 K, 101.33 kPa, x1 = 1): 1924.88 ± 2.5 kg/m3
mass density (298.15 K, 200 kPa, x1 = 0.2995): 1118.5 ± 0.59 kg/m3
mass density (298.15 K, 200 kPa, x1 = 0.5013): 1299.53 ± 1 kg/m3
mass density (298.15 K, 200 kPa, x1 = 0.6994): 1514.36 ± 1.6 kg/m3
mass density (298.15 K, 600 kPa, x1 = 0.2995): 1119.03 ± 0.6 kg/m3
mass density (298.15 K, 600 kPa, x1 = 0.5013): 1300.17 ± 1.1 kg/m3
mass density (298.15 K, 700 kPa, x1 = 0.6994): 1515.04 ± 1.6 kg/m3
mass density (298.15 K, 1100 kPa, x1 = 0.2995): 1119.69 ± 0.62 kg/m3
mass density (298.15 K, 1200 kPa, x1 = 0.5013): 1300.97 ± 1.1 kg/m3
mass density (298.15 K, 1200 kPa, x1 = 0.6994): 1515.77 ± 1.7 kg/m3
mass density (298.15 K, 1900 kPa, x1 = 0.6994): 1516.63 ± 1.7 kg/m3
mass density (298.15 K, 2000 kPa, x1 = 0.2995): 1120.79 ± 0.64 kg/m3
mass density (298.15 K, 2100 kPa, x1 = 0.5013): 1301.96 ± 1.1 kg/m3
mass density (298.15 K, 3000 kPa, x1 = 0.5013): 1303.21 ± 1.2 kg/m3
mass density (298.15 K, 3100 kPa, x1 = 0.2995): 1121.97 ± 0.67 kg/m3
mass density (298.15 K, 3100 kPa, x1 = 0.6994): 1518.35 ± 1.9 kg/m3
mass density (298.15 K, 4000 kPa, x1 = 0.2995): 1123.04 ± 0.69 kg/m3
mass density (298.15 K, 4000 kPa, x1 = 0.5013): 1304.49 ± 1.3 kg/m3
mass density (298.15 K, 4000 kPa, x1 = 0.6994): 1519.64 ± 2 kg/m3
mass density (298.15 K, 4900 kPa, x1 = 0.5013): 1305.64 ± 1.3 kg/m3
mass density (298.15 K, 5100 kPa, x1 = 0.2995): 1124.32 ± 0.72 kg/m3
mass density (298.15 K, 5100 kPa, x1 = 0.6994): 1521.08 ± 2.1 kg/m3
mass density (298.15 K, 5800 kPa, x1 = 0.6994): 1522.03 ± 2.2 kg/m3
mass density (298.15 K, 6000 kPa, x1 = 0.5013): 1306.93 ± 1.4 kg/m3
mass density (298.15 K, 6100 kPa, x1 = 0.2995): 1125.53 ± 0.75 kg/m3
mass density (298.15 K, 6800 kPa, x1 = 0.6994): 1523.33 ± 2.3 kg/m3
mass density (298.15 K, 6900 kPa, x1 = 0.2995): 1126.38 ± 0.78 kg/m3
mass density (298.15 K, 7000 kPa, x1 = 0.5013): 1308.07 ± 1.5 kg/m3
mass density (298.15 K, 7800 kPa, x1 = 0.5013): 1309.22 ± 1.6 kg/m3
mass density (298.15 K, 7900 kPa, x1 = 0.2995): 1127.44 ± 0.81 kg/m3
mass density (298.15 K, 7900 kPa, x1 = 0.6994): 1524.7 ± 2.5 kg/m3
mass density (298.15 K, 8700 kPa, x1 = 0.6994): 1525.86 ± 2.6 kg/m3
mass density (298.15 K, 8800 kPa, x1 = 0.5013): 1310.44 ± 1.6 kg/m3
mass density (298.15 K, 9000 kPa, x1 = 0.2995): 1128.74 ± 0.84 kg/m3
mass density (298.15 K, 9800 kPa, x1 = 0.5013): 1311.74 ± 1.7 kg/m3
mass density (298.15 K, 9800 kPa, x1 = 0.6994): 1527.42 ± 2.7 kg/m3
mass density (298.15 K, 9900 kPa, x1 = 0.2995): 1129.86 ± 0.87 kg/m3
mass density (298.15 K, 11800 kPa, x1 = 0.2995): 1131.84 ± 0.93 kg/m3
mass density (298.15 K, 11900 kPa, x1 = 0.6994): 1530.29 ± 3 kg/m3
mass density (298.15 K, 12100 kPa, x1 = 0.5013): 1314.57 ± 1.9 kg/m3
mass density (298.15 K, 13800 kPa, x1 = 0.2995): 1134.16 ± 1 kg/m3
mass density (298.15 K, 13800 kPa, x1 = 0.6994): 1532.98 ± 3.2 kg/m3
mass density (298.15 K, 13900 kPa, x1 = 0.5013): 1316.83 ± 2 kg/m3
mass density (298.15 K, 15700 kPa, x1 = 0.2995): 1136.18 ± 1.1 kg/m3
mass density (298.15 K, 15900 kPa, x1 = 0.5013): 1319.23 ± 2.2 kg/m3
mass density (298.15 K, 15900 kPa, x1 = 0.6994): 1535.7 ± 3.5 kg/m3
mass density (298.15 K, 17600 kPa, x1 = 0.5013): 1321.38 ± 2.3 kg/m3
mass density (298.15 K, 17700 kPa, x1 = 0.2995): 1138.39 ± 1.1 kg/m3
mass density (298.15 K, 17700 kPa, x1 = 0.6994): 1538.2 ± 3.7 kg/m3
mass density (298.15 K, 19200 kPa, x1 = 0.6994): 1540.32 ± 3.9 kg/m3
mass density (298.15 K, 19400 kPa, x1 = 0.6994): 1540.59 ± 3.9 kg/m3
mass density (298.15 K, 19900 kPa, x1 = 0.5013): 1324.19 ± 2.5 kg/m3
mass density (298.15 K, 20000 kPa, x1 = 0.2995): 1140.92 ± 1.2 kg/m3
mass density (308.15 K, 101.33 kPa, x1 = 0.0961): 949.99 ± 0.4 kg/m3
mass density (308.15 K, 101.33 kPa, x1 = 0.2333): 1054.79 ± 0.46 kg/m3
mass density (308.15 K, 101.33 kPa, x1 = 0.3083): 1116.41 ± 0.59 kg/m3
mass density (308.15 K, 101.33 kPa, x1 = 0.4015): 1197.33 ± 0.78 kg/m3
mass density (308.15 K, 101.33 kPa, x1 = 0.5004): 1290.38 ± 1 kg/m3
mass density (308.15 K, 101.33 kPa, x1 = 0.604): 1396.09 ± 1.2 kg/m3
mass density (308.15 K, 101.33 kPa, x1 = 0.7004): 1502.46 ± 1.5 kg/m3
mass density (308.15 K, 101.33 kPa, x1 = 0.7987): 1620.66 ± 1.8 kg/m3
mass density (308.15 K, 101.33 kPa, x1 = 0.9032): 1758.33 ± 2.1 kg/m3
mass density (308.15 K, 101.33 kPa, x1 = 1): 1900.86 ± 2.5 kg/m3

Reference: the NIST ThermoML archive (doi:10.1007/s10765-005-5570-x)
